Columns and labels:
Assay in all cases: biochemical
Design in all cases: KINOMEscan scanMAX active site-directed competition binding assay, percent of control, 468 kinases
Conditions in all cases: competition binding, percent of control
MST1R = MST1R (Homo sapiens, UniProt Q04912)
Procedure, shortened: (§1)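 KINOMEscan active site-directed competition binding assay against 468 human kinases with 100 μM S-carvone. Binding expressed as % of control, with 35% of control as the inhibition threshold.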

NEK11 = NEK11 (Homo sapiens, UniProt Q8NG66)
Procedure, shortened: as §1

[1] = biological target: T1, RSK2(Kin.Dom.2-C-terminal) (Homo sapiens, UniProt P51812)
T1 construct: gene RPS6KA3; Kin.Dom.2-C-terminal
Procedure, shortened: as §1

TESK1 = TESK1 (Homo sapiens, UniProt Q15569)
Sequence of TESK1 (Q15569 whole entry): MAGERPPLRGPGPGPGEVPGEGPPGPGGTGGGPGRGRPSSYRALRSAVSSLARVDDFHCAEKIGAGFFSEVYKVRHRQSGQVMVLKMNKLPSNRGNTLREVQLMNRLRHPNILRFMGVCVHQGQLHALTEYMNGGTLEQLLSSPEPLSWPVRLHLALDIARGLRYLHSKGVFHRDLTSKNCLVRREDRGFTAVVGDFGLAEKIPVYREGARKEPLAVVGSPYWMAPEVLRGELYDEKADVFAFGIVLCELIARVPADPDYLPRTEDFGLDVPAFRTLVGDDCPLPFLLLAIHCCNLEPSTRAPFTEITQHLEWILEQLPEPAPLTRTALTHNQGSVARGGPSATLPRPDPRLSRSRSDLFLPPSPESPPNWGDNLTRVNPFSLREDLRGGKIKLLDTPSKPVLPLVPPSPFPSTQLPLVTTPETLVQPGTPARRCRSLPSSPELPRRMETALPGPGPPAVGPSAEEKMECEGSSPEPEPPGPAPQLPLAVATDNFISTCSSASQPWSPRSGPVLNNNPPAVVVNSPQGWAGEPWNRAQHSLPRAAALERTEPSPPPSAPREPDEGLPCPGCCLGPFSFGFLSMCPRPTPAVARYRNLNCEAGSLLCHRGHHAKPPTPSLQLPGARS
Procedure, shortened: as §1

PIP5K1C = PIP5K1C (Homo sapiens, UniProt O60331)
Procedure, shortened: as §1

PCTK1 = biological target: T2, PCTK1 (Homo sapiens, UniProt Q00536)
T2 construct: gene CDK16
Procedure, shortened: as §1

TXK = TXK (Homo sapiens, UniProt P42681)
Procedure, shortened: as §1

GRK3 = GRK3 (Homo sapiens, UniProt P35626)
Sequence of GRK3 (P35626 whole entry): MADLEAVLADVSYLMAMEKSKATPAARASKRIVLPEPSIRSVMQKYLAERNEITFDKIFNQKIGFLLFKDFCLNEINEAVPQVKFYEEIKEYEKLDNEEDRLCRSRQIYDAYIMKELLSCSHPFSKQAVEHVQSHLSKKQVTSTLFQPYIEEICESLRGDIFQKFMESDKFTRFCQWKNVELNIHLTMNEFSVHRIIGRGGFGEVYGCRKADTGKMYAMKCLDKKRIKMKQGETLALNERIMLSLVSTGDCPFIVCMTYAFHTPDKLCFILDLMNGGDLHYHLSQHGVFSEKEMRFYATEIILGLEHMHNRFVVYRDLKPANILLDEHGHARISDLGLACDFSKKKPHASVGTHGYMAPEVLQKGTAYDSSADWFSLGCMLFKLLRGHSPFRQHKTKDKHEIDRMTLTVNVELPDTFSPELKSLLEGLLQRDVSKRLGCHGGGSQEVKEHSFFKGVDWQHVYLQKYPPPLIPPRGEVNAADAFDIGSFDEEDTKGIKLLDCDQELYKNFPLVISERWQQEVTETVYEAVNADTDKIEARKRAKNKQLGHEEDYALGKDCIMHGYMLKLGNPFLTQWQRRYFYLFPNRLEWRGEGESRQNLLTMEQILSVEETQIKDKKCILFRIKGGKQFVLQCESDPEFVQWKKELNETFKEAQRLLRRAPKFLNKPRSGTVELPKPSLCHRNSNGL
Procedure, shortened: as §1

[2] = biological target: T3, RSK2(Kin.Dom.1-N-terminal) (Homo sapiens, UniProt P51812)
T3 construct: gene RPS6KA3; Kin.Dom.1-N-terminal
Procedure, shortened: as §1

TRKB = biological target: T4, TRKB (Homo sapiens, UniProt Q16620)
T4 construct: gene NTRK2
T4 sequence (Q16620 whole entry): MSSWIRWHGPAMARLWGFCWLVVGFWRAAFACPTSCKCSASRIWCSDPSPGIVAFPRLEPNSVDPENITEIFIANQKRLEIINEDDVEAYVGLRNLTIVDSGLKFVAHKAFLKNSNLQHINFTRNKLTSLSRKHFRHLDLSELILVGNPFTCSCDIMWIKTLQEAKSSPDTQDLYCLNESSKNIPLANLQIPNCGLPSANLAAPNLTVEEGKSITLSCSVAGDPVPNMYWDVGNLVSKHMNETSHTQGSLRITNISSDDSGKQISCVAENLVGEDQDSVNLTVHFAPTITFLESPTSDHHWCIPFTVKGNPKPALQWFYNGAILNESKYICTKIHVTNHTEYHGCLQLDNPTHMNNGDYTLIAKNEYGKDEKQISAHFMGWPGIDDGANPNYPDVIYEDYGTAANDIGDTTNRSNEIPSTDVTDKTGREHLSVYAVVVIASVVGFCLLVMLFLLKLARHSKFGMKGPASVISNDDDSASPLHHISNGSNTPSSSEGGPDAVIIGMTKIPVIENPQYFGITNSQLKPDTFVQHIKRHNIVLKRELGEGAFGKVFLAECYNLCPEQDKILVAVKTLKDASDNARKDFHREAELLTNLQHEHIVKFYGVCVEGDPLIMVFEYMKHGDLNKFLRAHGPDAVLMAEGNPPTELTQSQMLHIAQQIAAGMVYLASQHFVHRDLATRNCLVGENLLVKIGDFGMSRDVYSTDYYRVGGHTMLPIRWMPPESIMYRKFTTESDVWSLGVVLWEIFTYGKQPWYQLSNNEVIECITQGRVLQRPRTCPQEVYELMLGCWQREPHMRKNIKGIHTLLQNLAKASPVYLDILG
Procedure, shortened: as §1

NEK1 = NEK1 (Homo sapiens, UniProt Q96PY6)
Procedure, shortened: as §1

[3] = biological target: T5, ABL1(E255K)-phosphorylated (Homo sapiens, UniProt P00519, E255K)
T5 construct: phosphorylated
Procedure, shortened: as §1

S6K1 = biological target: T6, S6K1 (Homo sapiens, UniProt P23443)
T6 construct: gene RPS6KB1
Procedure, shortened: as §1

MYLK4 = MYLK4 (Homo sapiens, UniProt Q86YV6)
Sequence of MYLK4 (Q86YV6 whole entry): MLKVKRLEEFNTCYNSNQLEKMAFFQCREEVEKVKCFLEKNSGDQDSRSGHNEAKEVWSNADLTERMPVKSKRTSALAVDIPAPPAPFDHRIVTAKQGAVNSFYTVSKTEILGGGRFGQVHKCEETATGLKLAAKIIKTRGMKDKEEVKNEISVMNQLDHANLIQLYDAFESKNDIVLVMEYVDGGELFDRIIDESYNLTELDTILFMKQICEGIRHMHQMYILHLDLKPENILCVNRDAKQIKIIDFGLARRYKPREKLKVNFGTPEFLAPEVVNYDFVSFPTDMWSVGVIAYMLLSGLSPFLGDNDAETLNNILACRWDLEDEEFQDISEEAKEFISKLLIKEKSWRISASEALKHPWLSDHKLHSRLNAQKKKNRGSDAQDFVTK
Procedure, shortened: as §1

MARK3 = MARK3 (Homo sapiens, UniProt P27448)
Procedure, shortened: as §1

[4] = biological target: T7, ABL1(F317I)-nonphosphorylated (Homo sapiens, UniProt P00519, F317I)
T7 construct: nonphosphorylated
T7 sequence (P00519 whole entry F317I): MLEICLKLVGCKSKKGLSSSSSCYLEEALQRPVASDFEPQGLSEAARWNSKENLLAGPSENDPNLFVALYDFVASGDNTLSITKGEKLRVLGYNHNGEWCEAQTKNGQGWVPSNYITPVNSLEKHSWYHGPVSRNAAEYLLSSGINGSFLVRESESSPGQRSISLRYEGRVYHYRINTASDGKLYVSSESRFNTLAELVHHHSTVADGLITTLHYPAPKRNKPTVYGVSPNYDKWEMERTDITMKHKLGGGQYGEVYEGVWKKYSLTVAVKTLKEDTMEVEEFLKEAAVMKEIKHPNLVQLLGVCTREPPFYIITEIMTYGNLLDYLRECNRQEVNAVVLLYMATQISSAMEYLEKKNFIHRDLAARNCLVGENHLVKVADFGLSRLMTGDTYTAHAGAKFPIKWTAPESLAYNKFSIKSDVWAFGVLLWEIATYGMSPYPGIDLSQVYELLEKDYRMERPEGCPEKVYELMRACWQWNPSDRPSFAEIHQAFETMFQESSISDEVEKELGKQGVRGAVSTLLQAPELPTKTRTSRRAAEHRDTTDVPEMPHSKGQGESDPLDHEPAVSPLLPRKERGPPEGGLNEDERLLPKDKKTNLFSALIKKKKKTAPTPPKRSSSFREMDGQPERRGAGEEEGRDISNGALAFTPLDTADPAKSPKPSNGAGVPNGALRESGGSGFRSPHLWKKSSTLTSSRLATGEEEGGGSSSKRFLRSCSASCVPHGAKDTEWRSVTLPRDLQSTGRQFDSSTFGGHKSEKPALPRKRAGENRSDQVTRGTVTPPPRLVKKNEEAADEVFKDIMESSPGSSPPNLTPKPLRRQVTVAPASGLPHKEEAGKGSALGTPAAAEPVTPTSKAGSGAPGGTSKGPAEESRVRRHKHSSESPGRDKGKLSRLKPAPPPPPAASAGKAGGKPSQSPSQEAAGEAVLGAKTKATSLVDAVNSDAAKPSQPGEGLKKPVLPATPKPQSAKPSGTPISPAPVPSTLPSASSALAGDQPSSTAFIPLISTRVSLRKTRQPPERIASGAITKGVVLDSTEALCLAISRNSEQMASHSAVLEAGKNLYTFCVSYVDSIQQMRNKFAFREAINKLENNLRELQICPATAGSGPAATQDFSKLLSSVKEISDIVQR
Procedure, shortened: as §1

GSK3B = GSK3B (Homo sapiens, UniProt P49841)
Procedure, shortened: as §1

ERBB4 = ERBB4 (Homo sapiens, UniProt Q15303)
Procedure, shortened: as §1

PKAC-alpha = biological target: T8, PKAC-alpha (Homo sapiens, UniProt P17612)
T8 construct: gene PRKACA
Procedure, shortened: as §1

MAP4K5 = MAP4K5 (Homo sapiens, UniProt Q9Y4K4)
Sequence of MAP4K5 (Q9Y4K4 whole entry): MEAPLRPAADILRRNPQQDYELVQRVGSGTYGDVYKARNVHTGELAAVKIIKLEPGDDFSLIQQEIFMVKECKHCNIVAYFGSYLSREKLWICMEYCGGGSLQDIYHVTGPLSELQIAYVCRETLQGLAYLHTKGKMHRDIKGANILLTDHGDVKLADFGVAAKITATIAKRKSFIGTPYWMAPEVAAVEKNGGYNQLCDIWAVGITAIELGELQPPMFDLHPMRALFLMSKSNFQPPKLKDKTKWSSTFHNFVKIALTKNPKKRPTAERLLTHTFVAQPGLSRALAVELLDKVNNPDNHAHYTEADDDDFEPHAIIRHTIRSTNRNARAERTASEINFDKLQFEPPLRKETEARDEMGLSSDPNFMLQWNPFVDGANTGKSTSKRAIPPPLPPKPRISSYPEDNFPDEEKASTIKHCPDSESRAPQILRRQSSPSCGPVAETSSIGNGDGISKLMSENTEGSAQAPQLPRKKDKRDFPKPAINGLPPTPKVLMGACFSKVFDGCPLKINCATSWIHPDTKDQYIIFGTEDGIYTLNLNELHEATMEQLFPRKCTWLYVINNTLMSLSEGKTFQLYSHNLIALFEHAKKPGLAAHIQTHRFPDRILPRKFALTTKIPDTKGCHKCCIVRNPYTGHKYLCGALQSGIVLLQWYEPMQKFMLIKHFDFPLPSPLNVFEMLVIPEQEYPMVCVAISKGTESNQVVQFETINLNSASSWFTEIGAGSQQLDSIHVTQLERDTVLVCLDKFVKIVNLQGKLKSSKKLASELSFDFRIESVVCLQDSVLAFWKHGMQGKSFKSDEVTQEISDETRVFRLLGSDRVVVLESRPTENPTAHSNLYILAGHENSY
Procedure, shortened: as §1

YES = biological target: T9, YES (Homo sapiens, UniProt P07947)
T9 construct: gene YES1
T9 sequence (P07947 whole entry): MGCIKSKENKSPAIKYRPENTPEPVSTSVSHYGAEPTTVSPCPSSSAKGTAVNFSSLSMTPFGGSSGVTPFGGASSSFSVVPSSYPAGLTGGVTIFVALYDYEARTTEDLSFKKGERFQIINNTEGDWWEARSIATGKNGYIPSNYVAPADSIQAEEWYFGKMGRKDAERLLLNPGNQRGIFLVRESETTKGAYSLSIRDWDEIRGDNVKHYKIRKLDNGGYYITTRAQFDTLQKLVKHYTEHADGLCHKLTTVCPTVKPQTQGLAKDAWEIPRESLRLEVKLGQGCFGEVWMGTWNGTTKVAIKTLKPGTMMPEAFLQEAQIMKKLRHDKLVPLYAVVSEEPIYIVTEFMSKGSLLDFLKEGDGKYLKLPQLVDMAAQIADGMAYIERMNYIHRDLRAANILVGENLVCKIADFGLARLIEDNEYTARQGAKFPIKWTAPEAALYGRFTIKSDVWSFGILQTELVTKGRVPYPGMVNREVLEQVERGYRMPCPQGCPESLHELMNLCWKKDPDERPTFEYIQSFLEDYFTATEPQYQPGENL
Procedure, shortened: as §1

- remaining binding at 100 µM (MST1R): 65%
- remaining binding at 100 µM (NEK11): 52%
- remaining binding at 100 µM [1]: 67%
- remaining binding at 100 µM (TESK1): 79%
- remaining binding at 100 µM (PIP5K1C): 100%
- remaining binding at 100 µM (PCTK1): 100%
- remaining binding at 100 µM (TXK): 89%
- remaining binding at 100 µM (GRK3): 58%
- remaining binding at 100 µM [2]: 89%
- remaining binding at 100 µM (TRKB): 78%
- remaining binding at 100 µM (NEK1): 94%
- remaining binding at 100 µM [3]: 72%
- remaining binding at 100 µM (S6K1): 93%
- remaining binding at 100 µM (MYLK4): 93%
- remaining binding at 100 µM (MARK3): 68%
- remaining binding at 100 µM [4]: 64%
- remaining binding at 100 µM (GSK3B): 82%
- remaining binding at 100 µM (ERBB4): 81%
- remaining binding at 100 µM (PKAC-alpha): 85%
- remaining binding at 100 µM (MAP4K5): 85%
- remaining binding at 100 µM (YES): 84%
SMILES: C=C(C)[C@H]1CC=C(C)C(=O)C1 [S-carvone]
